Where only a bound is given, the exact number is not on record here.

One series addresses Cytochrome P450 3A4 (Homo sapiens, UniProt P08684). As to the kind of experiment: Cytochrome P450 inhibition, 3A4. In kind it is in vitro ADME.
Series [1] is described as follows: Pharmacokinetic study, brain concentration after i.p. injection. As to conditions: mouse; for AUC / Cmax / Tmax / half-life: Albino Swiss, ip, brain, 10 mg/kg i.p. The format is in vivo, mouse (Albino Swiss). As for the experimental part: The mice were then perfused with 0.1M PBS to remove remaining blood from the body, and the brains were taken out for the analysis. Blood was centrifuged at 2000 rpm for 10 min at 4°C, and the plasma was collected and frozen at -80°C for further analysis.
Plasma and tissue samples from all drug-treated animals were thawed at room temperature prior to use. Standard protocol of sample preparation: 200 μl acetonitrile was added to the eppendorfs with 50 μl of studied plasma samples or tissue homogenate. Samples were mixed for 5 min on a mixer at 25°C and 1400 rpm. Tubes were then centrifuged at 2000 × g for 15 min at 4°C. About 180 μl of each supernatant was transferred into a plate well. Finally, each sample was injected into the column.
In calibration curve – serial dilution method, plasma was spiked with standard at different concentration levels. Acetonitrile was added. Mixed, centrifuged supernatant was taken.
Plasma and tissue samples from all drug-treated animals at selected time points are analyzed using previously developed a non-validated liquid chromatography-tandem mass spectrometry (LC-MS)/MS method.
LC/MS analysis was carried on a Bruker amaZon SL mass spectrometer using positive/ negative ion ESI mode. Chromatographic separation was achieved on a Ascentis Express C18 column, (5 cm × 2.1 mm, […], Supelco Technologies) at room temperature with a thermostatted column oven. A gradient elution of eluents A [acetonitrile (LiChrosolv, Reag. Ph Eur) +0.1% formic acid (Sigma–Aldrich, 98–100%)] and B (water +0.1% formic acid) was used for separation. The flow rate was set at 1 ml/min. The injection volume was 20 μl, and the time of injection was 4 min.
An Ion trap mass spectrometer (Bruker amaZon SL) was equipped with an electrospray source, operating in the positive/negative ion mode. Data were collected and processes using Bruker Quant Analysis software. Quantification of analytes was performed in SIM mode.

Series [2] concerns field potentials in frontal cortical slices. As to the kind of experiment: Electrophysiology: field potentials in frontal cortical slices, mGlu7 KO mice. As to conditions: for Before-after effect of the drug on FP amplitude: KO animals; for S (factor proportional to the slope of the curve) / Uh (stimulation intensity evoking FP of half-maximum amplitude) / Vmax (maximum FP amplitude, Boltzmann fit): slices from mGlu7 KO mice, after 20 min drug superfusion. From the text: Mice (wild and KO, approx. 25 g) were housed under a controlled light/dark cycle (light on: 0700–1900) and had free access to standard food and tap water. Mice were anesthetized with isoflurane (Aerrane, Baxter) decapitated, their brains were dissected and immersed in an ice-cold artificial cerebrospinal fluid (ACSF) of the following composition (in mM): NaCl (130), KCl (5), CaCl2 (2.5), MgSO4 (1.3), KH2PO4 (1.25), NaHCO3 (26), and glucose (10), bubbled with a mixture of 95% O2/5% CO2 to pH 7.4. Frontal cortical slices (bregma 1.9–1.4, 380 μm) were cut in a coronal plane using a vibrating microtome and they were stored at 32°C. A single slice was next transferred to the recording chamber (32°C ± 0.5°C) and superfused at 2.5 ml/min with a ACSF.
A bipolar stimulating electrode (FHC) was placed approx. 2 mm lateral to the midline and approx. 1.0 mm below the pial surface (in layer V) (Figure 1). Stimuli (duration: 0.2 ms) were applied at 0.033 Hz using a constant-current stimulus isolation unit (WPI). Field potentials (FPs) were recorded using glass micropipettes filled with ACSF (1–3 MΩ), which were placed approx. 0.2 mm below the cortical surface (in layer II/III). FPs were amplified (Axoprobe 1A, Axon Instruments), A/D converted at 10 kHz and stored using Micro1401 interface and Signal 4 software (CED).
The stimulus–response curves obtained for each slice were fit with the Boltzmann equation: Vi = Vmax/(1 + exp[(u - Uh)/-S]), where Vmax is the maximum FP amplitude; u is the stimulation intensity; Uh is the stimulation intensity evoking FP of half-maximum amplitude; S is the factor proportional to the slope of the curve; “exp” is exponentiation – mathematical operation. The results are expressed as the means ± SEM. Statistical analyses were carried out using t-test ([Tokarski et al., 2011]).
For each slice, at the beginning of the experiment an input-output curve was generated in ACSF. A stimulus-response (input-output) curve was made for each slice. […] One response was recorded at each stimulation intensity. […] Statistical analyzes were carried out using paired t-test and ANOVA.

The test system of series [3] is amphetamine-induced hyperactivity. Set-up: method as in Kalinichev et al., 2013. The settings on record: 100 and 150 mg/kg, subcutaneous; ref Kalinichev et al., 2013; cited from earlier work.
For series [4], the system named is MK-801-induced deficits in the NOR test. As to the kind of experiment: Novel object recognition test (MK-801-induced deficits). The format is in vivo, Albino Swiss mice. The settings on record: 30 min before MK-801 (0.3 mg/kg), mice. As for the experimental part:
The experiment was performed according to [Nilsson et al., 2007] with minor modifications ([Woźniak et al., 2016b]). Following a 2-day habituation period (10 min/day), a training trial was performed, where mice were allowed to explore two identical objects for 5 min. About 1 h later, a test trial was conducted, where one of the familiar object was replaced by a novel object. The animals were then allowed to explore the objects for 5 min. […] Time spend exploring (i.e., sniffing or touching) the familiar (Tfamiliar) or novel object (Tnovel) was measured by a trained observer and then the recognition index was calculated for each mouse [(Tnovel - Tfamiliar)/(Tfamiliar + Tnovel)] × 100.

For series [5], the system named is MK-801-induced increase in immobility time. As to the kind of experiment: Modified forced swim test after chronic MK-801. The format is in vivo, Albino Swiss mice. As to conditions: chronic (13 days) MK-801 0.4 mg/kg, mice. As for the experimental part: The modified forced swim test was performed according to the method introduced by Noda ([Noda et al., 1995], [1997]; [Wierońska et al., 2015a]; [Woźniak et al., 2016a]). The swim tests were performed in a glass cylinder (height, 20 cm; internal diameter, 15 cm) containing 11 cm of water maintained at 23–24°C. After the acclimation period, the animals underwent the first swim test, where the immobility time was measured during a 3 min period (T1). On the next day, chronic (13 days) MK-801 administration (0.4 mg/kg, i.p.) was started. After a 1-day break, on the 15th day of experiment, the second swim session was performed and the immobility time during 3-min test was measured again (T2). The T2 - T1 difference was reported as the result of the experiment.

Sequence of Cytochrome P450 3A4 (P08684 whole entry, the tested form may be a part): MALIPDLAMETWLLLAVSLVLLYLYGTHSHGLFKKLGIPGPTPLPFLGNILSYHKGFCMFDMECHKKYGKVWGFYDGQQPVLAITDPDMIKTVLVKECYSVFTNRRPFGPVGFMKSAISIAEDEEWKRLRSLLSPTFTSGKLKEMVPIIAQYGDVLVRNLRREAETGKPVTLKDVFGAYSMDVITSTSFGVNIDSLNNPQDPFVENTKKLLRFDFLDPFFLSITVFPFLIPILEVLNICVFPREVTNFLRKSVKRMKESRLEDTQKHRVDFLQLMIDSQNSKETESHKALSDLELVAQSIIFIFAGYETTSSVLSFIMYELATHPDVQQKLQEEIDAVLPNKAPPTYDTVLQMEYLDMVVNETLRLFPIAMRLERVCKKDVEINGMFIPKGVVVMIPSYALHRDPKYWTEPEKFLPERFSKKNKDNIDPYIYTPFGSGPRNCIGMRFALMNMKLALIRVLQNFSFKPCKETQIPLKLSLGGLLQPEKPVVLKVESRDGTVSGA

Consider `CCc1nc2c(o1)CC(c1ccc(C)cc1C)CC2=O` (stereo not shown) [ADX71743, 6-(2,4-Dimethylphenyl)-2-ethyl-6,7-dihydro-4(5H)-benzoxazolone], for which the IC50 (as a rule, the concentration that inhibits the measured activity by half) against Cytochrome P450 3A4 was greater than 10 µM. The Concentration in brain in series [1] (0,5 h after 10 mg/kg i.p.) is 2,09 μM. The Concentration in brain in series [1] (0,25 h after 10 mg/kg i.p.) is given as 3,38 μM. In series [1] (1 h after 10 mg/kg i.p.), the Concentration in brain is reported as 0,79 μM. In series [1] (2 h after 10 mg/kg i.p.), the Concentration in brain is 0,09 μM. Moreover, in series [1], the AUC (as a rule, the area under the concentration-time curve, a measure of exposure) came out at 2.27 µM·h; the peak level (Cmax) was 3.38 µM; the time of peak concentration (Tmax) (in general, the time at which the peak concentration occurs) was 15 min; the half-life (in general, the time needed for the level to fall by half in the phase considered) is 20.4 min. For the same compound, in series [2], the “Before-after effect of the drug on FP amplitude” value is 106%; the “S (factor proportional to the slope of the curve)” value is on record as 7.12 ± 0.41; the “Uh (stimulation intensity evoking FP of half-maximum amplitude)” value is 26.06 ± 1.18; the “Vmax (maximum FP amplitude, Boltzmann fit)” value was found to be 2.36 ± 0.18. In addition, the “Activity in amphetamine-induced hyperactivity” value in series [3] is listed as “active”. For the same compound, the “Effect on MK-801-induced reduction of recognition index (NOR)” value in series [4] (1 mg/kg i.p.) is given as “significant reversal of MK-801-induced effect”. Also, the “Effect on MK-801-induced reduction of recognition index (NOR)” value in series [4] (5 mg/kg i.p.) was “significant reversal of MK-801-induced effect”. Further, the “Effect on MK-801-induced reduction of recognition index (NOR)” value in series [4] (15 mg/kg i.p.) is on record as “significant reversal of MK-801-induced effect”.
For the compound `COc1ccc(-c2cc3onc(-c4ccncc4)c3c(=O)n2C)cc1` [MMPIP, 6-(4-Methoxyphenyl)-5-methyl-3-(4-pyridinyl)-isoxazolo(4,5-c)pyridin-4(5H)-one], the Concentration in brain in series [1] (0,5 h after 10 mg/kg i.p.) was 5,42 μM. The Concentration in brain in series [1] (0,25 h after 10 mg/kg i.p.) is on record as 3,63 μM. In addition, in series [1] (1 h after 10 mg/kg i.p.), the Concentration in brain is reported as 2,44 μM. For the same compound, in series [1] (2 h after 10 mg/kg i.p.), the Concentration in brain is 1,79 μM. In series [1], the area under the curve (AUC) turned out to be 8.98 µM·h, the highest concentration (Cmax) (usually the highest concentration seen after dosing) was found to be 5.42 µM, the time of peak concentration (Tmax) was 30 min and the half-life is 105 min. Also, in series [2], the “Before-after effect of the drug on FP amplitude” value is 100,1%; the “S (factor proportional to the slope of the curve)” value turned out to be 8.6 ± 1.01; the “Uh (stimulation intensity evoking FP of half-maximum amplitude)” value came to 22.1 ± 1.4; the “Vmax (maximum FP amplitude, Boltzmann fit)” value was 2.16 ± 0.2. In series [5] (1 mg/kg i.p. acutely 30 min before T2), the “Effect on MK-801-induced increase in immobility time (modified forced swim test)” value is recorded as “significant reversal of MK-801-induced effect”. For the same compound, the “Effect on MK-801-induced increase in immobility time (modified forced swim test)” value in series [5] (15 mg/kg i.p. acutely 30 min before T2) is listed as “significant reversal of MK-801-induced effect”.

The values are drawn from publication PMC6158327, “Negative Allosteric Modulators of mGlu7 Receptor as Putative Antipsychotic Drugs” (Frontiers in Molecular Neuroscience, 2018).
